Laboratory results reported in publication PMC10703426, “New characterization of dihydroergotamine receptor pharmacology in the context of migraine: utilization of a β-arrestin recruitment assay” (Frontiers in Neurology, 2023).
Where a name gives a salt, the structure may show the parent alone. Read-outs that look alike come from different tables or passages of the source.

How the values were obtained:
D4 = target: T1, D4 (Homo sapiens, UniProt P21917); experiment: gpcrMAX PathHunter β-arrestin recruitment, antagonist mode; type: cell-based
T1 construct: ProLink enzyme-donor fragment of β-galactosidase (own knowledge of the PathHunter design)
Protocol: (§1) PathHunter cell lines were expanded from freezer stocks according to standard procedures and cells were seeded in a total volume of 20 μL into white-walled, 384-well microplates in duplicate and incubated at 37°C prior to testing. […] Intermediate dilution (1% vehicle concentration) of sample stocks was performed to generate a 5× sample in assay buffer, of which 5 μL was added to the cells and incubated for 90 or 180 min at 37°C or room temperature, depending on the specific receptor, as established by manufacturer optimization protocols (see Supplementary Table 1). For antagonist activity, cells were preincubated with an antagonist for 30 min, followed by an agonist challenge at 80% of the maximal effective concentration (EC80). Intermediate dilution of sample stocks was performed to generate 5× sample in assay buffer, of which 5 μL was added to cells and incubated at 37°C or room temperature for 30 min. This was followed by an addition of 5 μL of 6× EC80 agonist in assay buffer to the cells, which were incubated at 37°C or room temperature for 90 or 180 min. Assay signal for agonist and antagonist modes was generated through a single addition of 12.5 or 15 μL (50% v/v) of PathHunter Detection reagent cocktail, followed by a 1-h incubation at room temperature. Further experimental details can be found in the Supplementary File. Microplates were read with a PerkinElmer EnVision (Shelton, CT) instrument for chemiluminescent signal detection.
(§2) Measurement of agonist and antagonist activity in the assay was calculated as percent activity of relative luminescence units (from positive control). Significance of agonist/antagonist activity was determined based upon prespecified criteria provided by Eurofins DiscoverX. In brief, receptor activity >30% was considered a significant agonist effect. Receptor inhibition >50% was considered a significant inhibitory effect. Please refer to the Supplementary File for more detail.
(§3) Samples were added to cells and incubated for 90 or 180 minutes at 37 °C or room temperature, depending on the specific receptor, as noted, with specific incubation protocols outlined in Supplemental Table 1. For antagonist activity, preincubation temperatures were performed at the temperatures specified in Supplemental Table 1, per target. Incubation with 6× EC80 agonist was determined by the assay manufacturer and selected in order to provide a challenge that was low enough to be below the saturation point, so as to not bias the results, while still at a high enough challenge concentration to yield a robust signal-to-noise ratio. Further information is available from Eurofins Discovery Services upon request.

D5 = target: T2, D5 (Homo sapiens, UniProt P21918); experiment: as above; type: cell-based
T2 construct: ProLink enzyme-donor fragment of β-galactosidase (own knowledge of the PathHunter design)
Protocol: as §1, §2, §3

α-adrenergic2C = target: T3, α-adrenergic2C (Homo sapiens, UniProt P18825); experiment: as above; type: cell-based
T3 construct: ProLink enzyme-donor fragment of β-galactosidase (own knowledge of the PathHunter design)
Protocol: as §1, §2, §3

α-adrenergic1B = target: T4, α-adrenergic1B (Homo sapiens, UniProt P35368); experiment: as above; type: cell-based
T4 construct: ProLink enzyme-donor fragment of β-galactosidase (own knowledge of the PathHunter design)
Protocol: as §1, §2, §3

D3 = target: T5, D3 (Homo sapiens, UniProt P35462); experiment: as above; type: cell-based
T5 construct: ProLink enzyme-donor fragment of β-galactosidase (own knowledge of the PathHunter design)
Protocol: as §1, §2, §3

5-HT1F = target: T6, 5-HT1F (Homo sapiens, UniProt P30939); experiment: as above; type: cell-based
T6 construct: ProLink enzyme-donor fragment of β-galactosidase (own knowledge of the PathHunter design)
T6 sequence (P30939 1-366): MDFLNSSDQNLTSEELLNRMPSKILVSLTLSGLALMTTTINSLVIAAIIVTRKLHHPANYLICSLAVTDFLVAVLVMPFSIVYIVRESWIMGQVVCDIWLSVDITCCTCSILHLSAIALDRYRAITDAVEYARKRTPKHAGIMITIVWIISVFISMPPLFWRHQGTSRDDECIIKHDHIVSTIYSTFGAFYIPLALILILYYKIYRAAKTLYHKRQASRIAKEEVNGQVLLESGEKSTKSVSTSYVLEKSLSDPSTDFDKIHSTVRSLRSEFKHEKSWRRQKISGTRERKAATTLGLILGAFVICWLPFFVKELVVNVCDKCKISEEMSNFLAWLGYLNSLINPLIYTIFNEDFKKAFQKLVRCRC
Protocol: as §1, §2, §3

5-HT1B [1] = target: T7, 5-HT1B (Homo sapiens, UniProt P28222); experiment: Radioligand competition binding, [3H]GR125743, Chem-1 cells
T7 construct: host or cells: Chem-1 cells
Protocol: All assays were performed in duplicate (ie, 2 replicates per assay, per standard manufacturer protocol).

[2] = 1 mg of IV DHE, cited from earlier work
CXCR7 [3] = target: T8, CXCR7 (Homo sapiens, UniProt P25106); experiment: gpcrMAX PathHunter β-arrestin recruitment, agonist mode; type: cell-based; design: ProLink enzyme-donor fragment of β-galactosidase (own knowledge of the PathHunter design)
Protocol: as §1, with “This was followed by an addition of 5 μL of 6× EC80 agonist in assay buffer to the cells, which were incubated at 37°C or room temperature for 90 or 180 min. Assay signal for agonist and antagonist modes was generated through a single addition of 12.5 or 15 μL (50% v/v) of PathHunter Detection reagent cocktail, followed by a 1-h incubation at room temperature. Further experimental details can be found in the Supplementary File.” left out
Measurement of agonist and antagonist activity in the assay was calculated as percent activity of relative luminescence units (from positive control). Significance of agonist/antagonist activity was determined based upon prespecified criteria provided by Eurofins DiscoverX. […]

D2S = settings: IV DHE (53 ng/mL); cited from earlier work
5-HT7 = settings: IV DHE (53 ng/mL); cited from earlier work
5-HT5A = settings: IV DHE (53 ng/mL); cited from earlier work
5-HT1D = settings: IV DHE (53 ng/mL); cited from earlier work
[4] = 1.0 mg of IV DHE, phase 1 study, cited from earlier work
CXCR7 [5] = target: T8, CXCR7; experiment: Radioligand binding assay (as worded in the discussion); settings: at concentrations <1.0 μM
α-adrenergic2A = settings: IV DHE (53 ng/mL); cited from earlier work
5-HT1B [6] = settings: IV DHE (53 ng/mL); cited from earlier work
human 5-HT4E receptor = target: T9, human 5-HT4E receptor (Homo sapiens, UniProt Q13639); experiment: Radioligand competition binding, [3H]GR 113808, CHO cell membranes
T9 construct: host or cells: CHO
Protocol: Nonspecific binding was determined in the presence of 100 μM serotonin. Following incubation, the same protocol as described above for 5-HT3 binding was employed. The standard reference compound for 5-HT4E binding is serotonin.

[7] = 10 μM, >50% inhibition = antagonist
[8] = agonist control Dopamine at EC80

T8 sequence (P25106 whole entry, the tested form may be a part): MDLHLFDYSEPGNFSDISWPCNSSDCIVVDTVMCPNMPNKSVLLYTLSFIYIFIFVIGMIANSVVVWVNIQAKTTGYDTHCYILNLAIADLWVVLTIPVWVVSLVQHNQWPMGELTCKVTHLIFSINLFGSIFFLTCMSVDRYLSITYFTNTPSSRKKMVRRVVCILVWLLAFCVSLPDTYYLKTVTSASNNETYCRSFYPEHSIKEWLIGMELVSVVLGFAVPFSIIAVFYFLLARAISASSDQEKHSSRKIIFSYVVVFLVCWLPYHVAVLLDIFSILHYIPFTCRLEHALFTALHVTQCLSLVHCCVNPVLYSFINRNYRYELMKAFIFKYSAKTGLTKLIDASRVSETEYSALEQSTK
T4 sequence (P35368 whole entry, the tested form may be a part): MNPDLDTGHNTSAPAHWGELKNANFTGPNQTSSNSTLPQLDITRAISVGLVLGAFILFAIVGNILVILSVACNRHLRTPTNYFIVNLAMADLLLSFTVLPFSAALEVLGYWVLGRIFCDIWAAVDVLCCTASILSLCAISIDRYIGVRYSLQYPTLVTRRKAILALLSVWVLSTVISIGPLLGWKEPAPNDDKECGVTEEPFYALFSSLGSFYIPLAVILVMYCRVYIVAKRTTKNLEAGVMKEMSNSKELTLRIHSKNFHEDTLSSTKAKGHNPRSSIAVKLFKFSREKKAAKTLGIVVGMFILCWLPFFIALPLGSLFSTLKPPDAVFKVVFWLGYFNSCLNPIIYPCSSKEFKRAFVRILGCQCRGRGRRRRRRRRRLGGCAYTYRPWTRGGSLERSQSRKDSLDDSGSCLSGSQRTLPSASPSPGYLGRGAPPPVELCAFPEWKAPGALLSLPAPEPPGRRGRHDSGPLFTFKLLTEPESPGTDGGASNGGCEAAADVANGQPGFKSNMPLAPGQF
T1 sequence (P21917 whole entry, the tested form may be a part): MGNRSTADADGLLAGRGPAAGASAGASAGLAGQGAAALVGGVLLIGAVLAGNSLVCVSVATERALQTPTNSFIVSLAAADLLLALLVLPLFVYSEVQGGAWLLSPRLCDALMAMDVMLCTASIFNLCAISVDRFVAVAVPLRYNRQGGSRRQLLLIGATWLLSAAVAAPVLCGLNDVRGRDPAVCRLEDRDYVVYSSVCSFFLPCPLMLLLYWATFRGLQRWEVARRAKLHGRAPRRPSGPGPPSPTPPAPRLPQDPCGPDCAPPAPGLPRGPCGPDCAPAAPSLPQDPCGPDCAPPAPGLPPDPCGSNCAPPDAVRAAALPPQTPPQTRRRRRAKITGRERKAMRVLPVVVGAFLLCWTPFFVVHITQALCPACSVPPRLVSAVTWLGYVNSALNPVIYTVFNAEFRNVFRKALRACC
T2 sequence (P21918 whole entry, the tested form may be a part): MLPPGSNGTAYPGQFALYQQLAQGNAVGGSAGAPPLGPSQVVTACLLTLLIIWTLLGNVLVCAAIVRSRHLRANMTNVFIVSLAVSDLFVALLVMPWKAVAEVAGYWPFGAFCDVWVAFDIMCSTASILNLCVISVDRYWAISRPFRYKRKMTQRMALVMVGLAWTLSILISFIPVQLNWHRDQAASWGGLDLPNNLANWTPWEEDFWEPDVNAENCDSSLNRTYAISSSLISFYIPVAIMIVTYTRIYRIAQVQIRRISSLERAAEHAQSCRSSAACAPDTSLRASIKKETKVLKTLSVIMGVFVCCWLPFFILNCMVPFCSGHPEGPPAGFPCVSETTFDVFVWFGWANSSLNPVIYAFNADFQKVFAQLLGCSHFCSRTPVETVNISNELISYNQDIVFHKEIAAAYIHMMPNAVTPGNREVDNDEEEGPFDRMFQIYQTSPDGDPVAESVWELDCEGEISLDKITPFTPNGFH
T5 sequence (P35462 whole entry, the tested form may be a part): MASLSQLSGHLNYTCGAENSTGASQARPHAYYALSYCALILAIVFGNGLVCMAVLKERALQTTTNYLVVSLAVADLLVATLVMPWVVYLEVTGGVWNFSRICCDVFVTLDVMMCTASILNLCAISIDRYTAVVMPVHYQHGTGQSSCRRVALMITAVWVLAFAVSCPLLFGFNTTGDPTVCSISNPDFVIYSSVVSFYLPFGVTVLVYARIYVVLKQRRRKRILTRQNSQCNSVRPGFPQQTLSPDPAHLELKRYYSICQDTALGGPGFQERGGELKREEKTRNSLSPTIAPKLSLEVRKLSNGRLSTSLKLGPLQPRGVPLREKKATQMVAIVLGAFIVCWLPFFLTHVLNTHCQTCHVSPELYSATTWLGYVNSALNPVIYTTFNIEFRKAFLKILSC
T3 sequence (P18825 whole entry, the tested form may be a part): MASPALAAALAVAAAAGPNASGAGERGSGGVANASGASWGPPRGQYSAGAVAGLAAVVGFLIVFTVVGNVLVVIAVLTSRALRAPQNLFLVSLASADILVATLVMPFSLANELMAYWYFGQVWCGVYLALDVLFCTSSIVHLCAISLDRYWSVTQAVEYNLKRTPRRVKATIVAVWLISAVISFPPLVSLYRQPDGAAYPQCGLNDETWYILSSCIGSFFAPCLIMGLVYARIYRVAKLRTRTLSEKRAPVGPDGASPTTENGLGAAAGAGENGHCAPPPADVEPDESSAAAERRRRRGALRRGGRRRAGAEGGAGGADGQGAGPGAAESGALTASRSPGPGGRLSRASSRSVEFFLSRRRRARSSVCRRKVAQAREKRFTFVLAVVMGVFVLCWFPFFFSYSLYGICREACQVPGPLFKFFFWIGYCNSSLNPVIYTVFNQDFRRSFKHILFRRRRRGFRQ
T9 sequence (Q13639 1-378 isoform Q13639-5): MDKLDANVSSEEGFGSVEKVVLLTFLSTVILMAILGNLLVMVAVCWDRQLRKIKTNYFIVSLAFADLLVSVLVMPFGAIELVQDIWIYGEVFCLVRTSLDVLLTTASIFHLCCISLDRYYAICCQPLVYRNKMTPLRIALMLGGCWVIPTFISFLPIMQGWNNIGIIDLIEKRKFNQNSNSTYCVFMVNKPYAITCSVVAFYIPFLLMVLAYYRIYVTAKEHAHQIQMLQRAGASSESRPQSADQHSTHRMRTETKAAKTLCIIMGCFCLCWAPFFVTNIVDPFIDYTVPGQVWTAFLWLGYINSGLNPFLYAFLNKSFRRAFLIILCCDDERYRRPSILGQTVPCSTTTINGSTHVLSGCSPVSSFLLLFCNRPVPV
T7 sequence (P28222 whole entry): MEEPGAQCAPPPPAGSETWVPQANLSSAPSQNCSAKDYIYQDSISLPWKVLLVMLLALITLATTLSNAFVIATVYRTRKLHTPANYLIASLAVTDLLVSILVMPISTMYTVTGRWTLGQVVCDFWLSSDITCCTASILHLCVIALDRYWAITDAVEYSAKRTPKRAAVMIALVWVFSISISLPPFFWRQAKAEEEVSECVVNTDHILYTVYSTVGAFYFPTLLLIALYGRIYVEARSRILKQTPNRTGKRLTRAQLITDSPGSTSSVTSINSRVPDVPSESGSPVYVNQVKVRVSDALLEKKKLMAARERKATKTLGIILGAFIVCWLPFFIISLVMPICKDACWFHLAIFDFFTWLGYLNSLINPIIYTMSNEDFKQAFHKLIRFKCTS

## CN1C[C@H](C(=O)N[C@]2(C)O[C@@]3(O)[C@@H]4CCCN4C(=O)[C@H](Cc4ccccc4)N3C2=O)C[C@@H]2c3cccc4[nH]cc(c34)C[C@H]21 [DHE, Dihydroergotamine mesylate]
D4; [7]
  DHE activity (screening): Antagonist
D4; [8]
  inhibition at 10 µM: 83%
D5; [7]
  DHE activity (screening): Antagonist
D5; [8]
  inhibition at 10 µM: 54%
α-adrenergic2C; [7]
  DHE activity (screening): Antagonist
α-adrenergic2C; agonist control UK 14,304 at EC80
  inhibition at 10 µM: 124%
α-adrenergic1B; [7]
  DHE activity (screening): Antagonist
α-adrenergic1B; agonist control Phenylephrine at EC80
  inhibition at 10 µM: 95%
D3; [7]
  DHE activity (screening): Antagonist
D3; [8]
  inhibition at 10 µM: 91%
5-HT1F
  IC50: 149 nM
5-HT1F; [7]
  DHE activity (screening): Antagonist
5-HT1F; 10 μM, agonist control Serotonin at EC80
  inhibition at 10 µM: 92%
5-HT1B [1]
  IC50: 0.58 nM
[2]
  maximum plasma concentration (Cmax): 53 ng/mL
[2]; read-out: maximum plasma concentration (Cmax)
  Cmax: ~91 nM
CXCR7 [3]
  EC50: 6000 nM
CXCR7 [3]; 10 μM, >30% activity = agonist
  DHE activity (screening): Agonist
D2S
  receptor radioligand binding (active binding): X (An X denotes active binding)
5-HT7
  receptor radioligand binding (active binding): X (An X denotes active binding)
5-HT5A
  receptor radioligand binding (active binding): X (An X denotes active binding)
5-HT1D
  receptor radioligand binding (active binding): X (An X denotes active binding)
[4]
  Human plasma Cmax: 14.2 ng/mL
[4]; read-out: Human plasma Cmax
  Cmax: ~24 nM
CXCR7 [5]
  DHE binding/activity at CXCR7: Additional notes • Radioligand binding assays reported here did not show DHE binding at concentrations <1.0 μM; therefore, agonist activity of DHE on CXCR7 is unlikely in clinically relevant conditions
α-adrenergic2A
  receptor radioligand binding (active binding): X (An X denotes active binding)
5-HT1B [6]
  receptor radioligand binding (active binding): X (An X denotes active binding)
Human 5-HT4E receptor
  IC50: 230 nM
